Values quoted from earlier work in patent publication US12263155B2, “Combinations of monoamine oxidase inhibitors and serotonin receptor agonists and their therapeutic use” (Remedi, Inc., priority 2022, dated 2025).
Like-named read-outs stand apart in the source and are kept apart here.

How the values were obtained:
[1] = in vivo; cited from earlier work
platelet MAO-B = molecular target: T1, platelet MAO-B (Homo sapiens, UniProt P27338); conditions: cited from earlier work
T1 construct: host or cells: human platelets
T1 sequence (P27338 1-520): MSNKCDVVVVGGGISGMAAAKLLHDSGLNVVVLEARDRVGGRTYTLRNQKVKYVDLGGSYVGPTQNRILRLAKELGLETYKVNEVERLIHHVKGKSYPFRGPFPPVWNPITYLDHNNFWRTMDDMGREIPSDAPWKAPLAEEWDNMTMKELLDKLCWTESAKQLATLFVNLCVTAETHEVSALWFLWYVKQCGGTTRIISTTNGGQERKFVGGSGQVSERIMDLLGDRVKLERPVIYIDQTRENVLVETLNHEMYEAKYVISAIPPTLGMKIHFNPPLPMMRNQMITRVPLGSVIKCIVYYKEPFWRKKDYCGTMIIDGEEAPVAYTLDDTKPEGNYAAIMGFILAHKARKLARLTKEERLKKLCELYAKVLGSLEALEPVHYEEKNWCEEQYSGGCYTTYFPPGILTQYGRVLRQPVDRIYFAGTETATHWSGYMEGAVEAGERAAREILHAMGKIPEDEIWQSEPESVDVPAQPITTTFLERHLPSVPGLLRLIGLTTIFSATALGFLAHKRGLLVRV

For `CN(C)CCc1c[nH]c2ccccc12` [DMT, N,N-dimethyltryptamine], the “apparent volume of distribution” value [1] is given as 36 to 55 L/kg.
In the case of `O=C(NCCN1CCOCC1)c1ccc(Cl)cc1` [moclobemide], the “inhibition of platelet MAO-B” value (platelet MAO-B; 450 mg dose) is given as 32% and the “inhibition of platelet MAO-B” value (platelet MAO-B; human subjects, single 100 mg dose) is given as 27%.
